Laboratory results from publication PMC11981937 (Nature, 2025).
Several values for one entry are separate records, joined by “and”; a condition that tells them apart may be missing. Identical values can stand only once. Entries after “also recorded” stand apart in the source; their conditions may differ. Like-named read-outs stand apart in the source and are kept apart here.

What was measured:
SARS-CoV-2 (B1 strain) = experiment: microbe, parasite or virus in culture; format: cell-based; settings: Severe acute respiratory syndrome coronavirus 2; SARS-CoV-2 B1, in a variety of cell types
SARS-CoV (FFM1 strain) = experiment: microbe, parasite or virus in culture; format: cell-based; settings: Severe acute respiratory syndrome coronavirus
HCoV-229E [1] = experiment: microbe, parasite or virus in culture; format: cell-based
HCoV-229E [2] = experiment: microbe, parasite or virus in culture; format: cell-based; settings: Human coronavirus 229E
HCoV-OC43 = HCoV-OC43 antiviral CPE reduction assay in MRC-5 cells; format: cell-based
Description: 161 determined with Promega CellTiter 96™ via a colorimetric assay (MTS assay). Readout was done
162 using a GloMax® Discover Microplate Reader (Promega).
163 Data were normalized taking the infected cells without treatment and the mock non-infected cells
164 as the bottom and top values of the dose-response curves, respectively. Dose-response curves were
165 fitted using non-linear regression analysis employing a sigmoidal model in Graphpad Prism
166 (version 9.5.0). In each experiment, data were presented as mean ± standard error of the mean of
167 3 technical replicates.
168 HCoV-OC43 antiviral CPE reduction assay
169 For the HCoV-OC43 CPE reduction assay, MRC-5 cells were seeded in black or white 96-well
170 plates (Greiner Bio-One) at a density of 10,000 cells/well and incubated overnight at 37°C. The
171 next day, compound was added to the assay plates in either a 4-fold dilution series or 2-fold dilution
172 series. Sequentially, cells were infected with HCoV-OC43 at a final MOI of 0.3. Plates were then
173 incubated for 6 days at 33°C under 5% CO2. […]
174 determined using the Viral ToxGlo™ assay (Promega) on a BioTek spectrophotometer.
175 Cytotoxicity was evaluated in parallel in treated, uninfected cells in a similar set-up with the same
176 readout. EC50 and CC50 values were calculated using GraphPad Prism 9.5.0. […]
181 0.1. […] Readouts for antiviral activity […]

MHV = MHV antiviral assay in HeLa cells (luciferase); format: cell-based, mouse hepatitis virus; settings: Murine coronavirus, MHV (betaCoV)
SARS-CoV-2 (B1) = format: cell-based
[3] = target: purified recombinant SARS-CoV-2 M (Severe acute respiratory syndrome coronavirus 2, UniProt P0DTC5); experiment: Nano differential scanning fluorimetry (nanoDSF); format: binding; settings: 100 µM compound, 0.5 mg/ml M protein, n=3
[4] = target: T1, purified recombinant M protein (Severe acute respiratory syndrome coronavirus 2, UniProt P0DTC5); format: binding, SARS-CoV-2; settings: 5 µM compound
T1 construct: SARS-CoV-2 M protein (1–222, UniProt: P0DTC5); ALFA-tag (C); C-tag (EPEA) (C); made in house; host or cells: Expi293F cells (Invitrogen), transient transfection of a pcDNA3.4 construct

SARS-CoV-2 B1 = format: in vivo, Syrian golden hamster; settings: for Histopathology score, average / Histopathology score, median / Infectious virus in the lung (TCID50/mg), average Log 10 / Infectious virus in the lung (TCID50/mg), median Log 10 / Viral load (viral RNA) in the lung, average Log 10 / Viral load (viral RNA) in the lung, median Log 10: n=5
[5] = pre-exposure, 8.33 mg/kg BID, listed as 87009676-AAA, 8.33 mg/kg

## C[C@H]1Cn2ncc(C(=O)Nc3cccc(C#N)c3)c2C(=O)N1c1ccc(C(F)(F)c2ccccc2)cc1 [JNJ-9676, (S)-N-(3-cyanophenyl)-5-(4-(difluoro(phenyl)methyl)phenyl)-6-methyl-4-oxo-4,5,6,7-tetrahydropyrazolo[1,5-a]pyrazine-3-carboxamide]
SARS-CoV-2 (B1 strain)
  EC50: 0.014 to 0.022 µM
SARS-CoV (FFM1 strain); read-out: Median EC50
  EC50: 0.021 µM
SARS-CoV (FFM1 strain); read-out: Median EC90
  EC90: 0.045 µM
HCoV-229E [1]; Human coronavirus 229E, Huh-7, read-out: Median EC50
  EC50: > 30 µM
HCoV-229E [1]; Human coronavirus 229E, Huh-7, read-out: Median EC90
  EC90: > 30 µM
HCoV-229E [1]; […], cell type not given
  antiviral activity (in words): no activity
HCoV-229E [2]; read-out: Median EC50
  EC50: > 12.5 µM
HCoV-229E [2]; read-out: Median EC90
  EC90: > 12.5 µM
HCoV-OC43; Betacoronavirus 1, MRC5, MRC-5, HCOV-OC43 (betaCoV), EC90 could be calculated in one experiment, read-out: Median EC90
  EC90: 4 µM
HCoV-OC43; Betacoronavirus 1, OC43, MRC5, read-out: Median EC50
  EC50: 3.9 µM
MHV; read-out: EC50 (column Median EC50; N=1, no median)
  EC50: 1.3 µM
MHV; read-out: EC90 (column Median EC90; N=1, no median)
  EC90: 6.3 µM
SARS-CoV-2 (B1)
  biogenesis of infectious progeny: inhibited completely
[3]
  Tm: 54.1 ± 0.1 °C
  ΔTm (stabilization in melting temperature): 0.9 °C
[4]
  compound recovery with M-protein:Fab B complex compared to M protein alone or M-protein:Fab E complex: significantly higher
[4]; 5 µM M protein
  compound recovery with M protein relative to buffer-only control: reproducible JNJ-9676 recovery
SARS-CoV-2 B1; Syrian golden hamster model
  lowest effective dose: 25 mg per kg BID
SARS-CoV-2 B1; pre-exposure, 8.33 mg/kg BID
  Histopathology score, average: 1.80
  Histopathology score, median: 2.00
  Infectious virus in the lung (TCID50/mg), average Log 10: 4.72 Log 10
  Infectious virus in the lung (TCID50/mg), median Log 10: 4.67 Log 10
  Viral load (viral RNA) in the lung, average Log 10: 4.56 Log 10
  Viral load (viral RNA) in the lung, median Log 10: 4.62 Log 10
SARS-CoV-2 B1; [5]
  Histopathology score, individual animal: 2 and 1.5
  Infectious virus in the lung (TCID50/mg), Log 10, individual animal: 5.82 Log 10 and 3.86 Log 10 and 4.99 Log 10 and 4.24 Log 10 and 4.67 Log 10
  Infectious virus in the lung, individual animal: 662125.31 TCID50/mg and 7237.18 TCID50/mg and 98821.18 TCID50/mg and 17573.17 TCID50/mg and 46447.60 TCID50/mg
  Viral load (viral RNA) in the lung, Copy number, individual animal: 2.23E+04 and 1.34E+05 and 8.49E+02 and 4.14E+04 and 6.27E+05
  Viral load (viral RNA) in the lung, Log 10, individual animal: 4.35 Log 10 and 5.13 Log 10 and 2.93 Log 10 and 4.62 Log 10 and 5.80 Log 10
SARS-CoV-2 B1; pre-exposure, 25 mg per kg BID
  cumulative histopathological lung score (in words): reduced to the baseline; also recorded: significantly reduced
SARS-CoV-2 B1; pre-exposure, 25 mg per kg BID, oral
  reduction of viral load in the lung: 3.5 log10[RNA copies per mg lung]
SARS-CoV-2 B1; pre-exposure, 25 mg/kg BID
  Histopathology score, average: 1.40
  Histopathology score, median: 1.50
  Infectious virus in the lung (TCID50/mg), average Log 10: 0.81 Log 10
  Infectious virus in the lung (TCID50/mg), median Log 10: 1.28 Log 10
  Viral load (viral RNA) in the lung, average Log 10: 9.46 Log 10
  Viral load (viral RNA) in the lung, median Log 10: 9.30 Log 10
